Assay: Initial screening for poor solubility in aqueous media
Method: Many potential candidates were screened during this process. […] This list was then prioritized based on aqueous solubility, safety, and cost. […] This test was done by mixing […] of PBS and adding 10 mg of bulk drug. […] If the drug fully dissolved at this concentration, it was not considered for the testing.

[1] = PBS pH 7.4, 10 mg bulk drug in 0.3-1.0 L, criterion: no more soluble than 20 mg/L

Row | poor solubility screening in aqueous media [1] | poor solubility screening in aqueous media (pH 7.4) | Structure (SMILES)
1 | passed the initial screening |  | Cc1c(OCC(F)(F)F)ccnc1C[S+]([O-])c1nc2ccccc2[nH]1 (stereo not drawn) [lansoprazole]
2 |  | passed the initial screening | COc1ccc(Cl)cc1C(=O)NCCc1ccc(S(=O)(=O)NC(=O)NC2CCCCC2)cc1 [glyburide, 1-[[p-[2-(5-chloro-o-anisamido)ethyl]phenyl]-sulfonyl]-3-cyclohexylurea]
3 | passed the initial screening |  | CN1C(C(=O)Nc2ccccn2)=C(O)c2ccccc2S1(=O)=O [piroxicam]
